Details: 101.33 kPa, Liquid; for viscosity: Concentric cylinders viscometry; for electrical conductivity: Direct current cell with electrodes

CCCC[n+]1ccn(C)c1.O=S(=O)([N-]S(=O)(=O)C(F)(F)F)C(F)(F)F
Details	electrical conductivity [S/m]	mass density [kg/m3]	viscosity [mPa·s]
293.15 K	–	1439.27	–
298.15 K	0.402	1434.3	50.05
299.15 K	0.417	–	–
300.15 K	0.435	–	–
301.15 K	0.453	–	–
302.15 K	0.47	–	–
303.15 K	0.488	1429.4	41.24
304.15 K	0.506	–	–
305.15 K	0.524	–	–
306.15 K	0.543	–	–
307.15 K	0.562	–	–
308.15 K	0.581	1424.57	33.65
309.15 K	0.602	–	–
310.15 K	0.622	–	–
311.15 K	0.643	–	–
312.15 K	0.664	–	–
313.15 K	0.684	1419.61	28.28
314.15 K	0.706	–	–
315.15 K	0.729	–	–
316.15 K	0.751	–	–
317.15 K	0.773	–	–
318.15 K	0.795	1414.67	23.91
319.15 K	0.82	–	–
320.15 K	0.842	–	–
321.15 K	0.866	–	–
322.15 K	0.891	–	–
323.15 K	0.921	1409.65	20.64
324.15 K	0.949	–	–
325.15 K	0.983	–	–
326.15 K	1.01	–	–
327.15 K	1.04	–	–
328.15 K	1.07	1404.64	17.9
329.15 K	1.1	–	–
330.15 K	1.14	–	–
331.15 K	1.17	–	–
332.15 K	1.21	–	–
333.15 K	1.24	1399.6	15.51
334.15 K	1.27	–	–
335.15 K	1.31	–	–
336.15 K	1.34	–	–
337.15 K	1.38	–	–
338.15 K	1.41	1394.43	13.71
339.15 K	1.45	–	–
340.15 K	1.48	–	–
341.15 K	1.52	–	–
342.15 K	1.55	–	–
343.15 K	1.59	1389.16	12.09
344.15 K	1.63	–	–
345.15 K	1.67	–	–
346.15 K	1.71	–	–
347.15 K	1.74	–	–
348.15 K	1.78	1383.85	10.78
349.15 K	1.82	–	–
350.15 K	1.86	–	–
351.15 K	1.9	–	–
352.15 K	1.94	–	–
353.15 K	1.98	1378.53	9.69

CCCC[N+]1(C)CCCC1.O=S(=O)([N-]S(=O)(=O)C(F)(F)F)C(F)(F)F
Details	electrical conductivity [S/m]	mass density [kg/m3]	viscosity [mPa·s]
293.15 K	–	1399	–
298.15 K	0.277	1394.57	76.73
299.15 K	0.288	–	–
300.15 K	0.3	–	–
301.15 K	0.313	–	–
302.15 K	0.327	–	–
303.15 K	0.34	1390.02	61.67
304.15 K	0.354	–	–
305.15 K	0.368	–	–
306.15 K	0.383	–	–
307.15 K	0.398	–	–
308.15 K	0.412	1385.48	50.49
309.15 K	0.427	–	–
310.15 K	0.443	–	–
311.15 K	0.459	–	–
312.15 K	0.475	–	–
313.15 K	0.492	1380.93	41.73
314.15 K	0.509	–	–
315.15 K	0.527	–	–
316.15 K	0.544	–	–
317.15 K	0.562	–	–
318.15 K	0.58	1376.28	34.67
319.15 K	0.598	–	–
320.15 K	0.616	–	–
321.15 K	0.635	–	–
322.15 K	0.655	–	–
323.15 K	0.673	1371.64	29.48
324.15 K	0.694	–	–
325.15 K	0.713	–	–
326.15 K	0.733	–	–
327.15 K	0.754	–	–
328.15 K	0.775	1366.9	25.43
329.15 K	0.795	–	–
330.15 K	0.816	–	–
331.15 K	0.839	–	–
332.15 K	0.86	–	–
333.15 K	0.884	1362.2	21.9
334.15 K	0.911	–	–
335.15 K	0.938	–	–
336.15 K	0.965	–	–
337.15 K	0.993	–	–
338.15 K	1.02	1357.35	19.16
339.15 K	1.05	–	–
340.15 K	1.08	–	–
341.15 K	1.11	–	–
342.15 K	1.13	–	–
343.15 K	1.17	1352.44	16.82
344.15 K	1.2	–	–
345.15 K	1.23	–	–
346.15 K	1.26	–	–
347.15 K	1.29	–	–
348.15 K	1.32	1347.48	14.8
349.15 K	1.36	–	–
350.15 K	1.4	–	–
351.15 K	1.43	–	–
352.15 K	1.46	–	–
353.15 K	1.49	1342.48	13.24
